# Where two headings read alike, the source gives them in different places.
# Molecular target: T1, urease (Canavalia ensiformis, UniProt P07374)
# T1 construct: purchased Siemens Azostix reagent test strip
# Assay type: biochemical
# Details: for urea converted to ammonia: within 60 seconds
# Text: In an embodiment, the physiologically acceptable composition may have a pH of substantially 2. […] The capacity of a composition containing urea to produce ammonia toxicity in ruminant animals can be measured with a urease test strip. These strips contain the enzyme urease. Urease is specific to urea and catalyses the breakdown to ammonia, and the strip undergoes a colour change when the urease strip is exposed to ammonia.
# These strips contain the enzyme urease and the indicator bromothymol blue. Urease is specific to urea and breaks it down to ammonia. […] Therefore, the strip turns from yellow to green when the urease strip is exposed to urea. One strip was exposed to a solution of urea at the rate of 1 gram per litre.
# T1 sequence (P07374 whole entry, looked up): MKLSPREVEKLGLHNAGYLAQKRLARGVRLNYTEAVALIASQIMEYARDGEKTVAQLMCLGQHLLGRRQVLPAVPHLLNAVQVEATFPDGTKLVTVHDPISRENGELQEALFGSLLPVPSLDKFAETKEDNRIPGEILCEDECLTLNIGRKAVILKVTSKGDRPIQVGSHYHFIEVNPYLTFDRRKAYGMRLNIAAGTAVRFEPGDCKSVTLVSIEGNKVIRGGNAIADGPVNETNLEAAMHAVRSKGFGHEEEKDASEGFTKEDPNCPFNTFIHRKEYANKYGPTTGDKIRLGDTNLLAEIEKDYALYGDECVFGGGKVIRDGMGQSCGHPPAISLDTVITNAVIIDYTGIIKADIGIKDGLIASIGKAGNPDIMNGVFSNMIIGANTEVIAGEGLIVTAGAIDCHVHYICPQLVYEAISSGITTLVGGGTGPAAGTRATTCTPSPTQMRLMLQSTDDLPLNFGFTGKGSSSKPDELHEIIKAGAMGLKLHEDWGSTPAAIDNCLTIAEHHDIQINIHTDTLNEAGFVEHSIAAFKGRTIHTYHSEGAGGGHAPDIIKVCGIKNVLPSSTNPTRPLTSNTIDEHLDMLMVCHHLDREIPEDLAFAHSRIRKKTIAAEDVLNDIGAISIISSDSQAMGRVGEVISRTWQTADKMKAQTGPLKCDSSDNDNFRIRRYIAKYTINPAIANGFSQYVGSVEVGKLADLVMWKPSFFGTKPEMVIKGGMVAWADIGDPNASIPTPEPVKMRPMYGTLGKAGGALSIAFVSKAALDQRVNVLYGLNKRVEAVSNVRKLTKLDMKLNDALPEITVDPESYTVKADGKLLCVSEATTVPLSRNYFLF
Compound,colour change of urease test strip (ammonia production) (urea phosphate at 5 grams per litre),"urea converted to ammonia (urea phosphate, 5 grams per litre)",colour change of urease test strip (ammonia production) (solution of urea at 1 gram per litre),"urea converted to ammonia (urea only mix, 1 gram per litre)"
NC(N)=O.O=P(O)(O)O [urea phosphate],unchanged,none,–,–
NC(N)=O [urea],–,–,turned from the unexposed yellow colour to a deep green,all

# Source: patent publication US20210338609A1, “COMPOSITIONS FOR ADMINISTRATION TO ANIMALS TO INCREASE GUT NON-PROTEIN NITROGEN LEVELS” (D.I.T Technologies Ltd, priority 2018, published 2021)
